Here are results for 13 molecules from US4038480A, “6-Aminocarbonyl purine 3',5'-cyclic nucleotides” (ICN Pharmaceuticals, Inc., priority 1973, dated 1977).

pIC50: −log10 of the molar value. Structures can show the parent of a compound that is named as a salt.

Data set [1] relates to bovine brain C-AMP dependent kinase. Conditions: relative to C-AMP; K. Muneyama et al; cited from earlier work.
Data set [2] relates to rabbit kidney high Km C-AMP phosphodiesterase. The data set can be described thus: Vulnerability to degradation (hydrolysis) by high Km C-AMP phosphodiesterase. Format: biochemical. Conditions: for resistance to hydrolysis compared with C-AMP: rabbit kidney high Km phosphodiesterase. The text has this:
In fact, hydrolysis to any appreciable extent could be detected only in the case of compound 8 (hydrolysis at a rate only 8% that of C-AMP).

For data set [3], the target named is beef heart cAMP phosphodiesterase. The data set can be described thus: Inhibition of beef heart cAMP phosphodiesterase. Format: biochemical. The following applies: read-out: I50, Beef Heart. The text has this: (§1) The results appear in Table I below.
In data set [4] the target is rabbit lung cAMP phosphodiesterase. Put plainly: Inhibition of rabbit lung cAMP phosphodiesterase. Format: biochemical. The following applies: read-out: I50, Rabbit Lung.
Excerpt: as §1

A further data set has as its system lipolysis. Put plainly: Activation of lipolysis.
The nature of data set [5]: Lowering of blood pressure. Conditions: in vivo.
The next data set deals with steroidogenisis. Put plainly: Activation of steroidogenesis.
Data set [6] has as its target bovine brain C-AMP dependent kinase. Put plainly: Activation of C-AMP dependent protein kinase. The class given is biochemical. Conditions: for kinase activation compared with C-AMP: bovine brain kinase, comparison in words. The procedure:
Preferred carbamoyl compounds prepared as in the preceding examples were assayed for ability to activate protein kinase by the procedure described in K. Muneyama et al, Biochem. 10, 2390 (1971), using bovine brain C-AMP dependent kinase purified according to Kuo & Greengard, in Proc. Nat. Acad. Sci. U.S.A. 64, 1349 (1969). […] K. Muneyama et al, supra.

Data set [7] can be described thus: Inotropic action (cardiac output, heart rate). The following applies: inotropic agent. The class given is in vivo.
A further data set relates to adenyl cyclase. The data set can be described thus: Inhibition of adenyl cyclase. The class given is biochemical.

Take `Nc1ncnc2c1nc(S)n2[C@@H]1O[C@@H]2COP(=O)(O)O[C@H]2[C@H]1O` [8-thio derivative of C-AMP]: the “Ka' (highest value previously reported in the literature)” value in data set [1] is reported as 3.77.

Consider `CNC(=O)Nc1ncnc2c1ncn2[C@@H]1O[C@@H]2COP(=O)(O)O[C@H]2[C@H]1OC(=O)NC` [Compound 2, N^6, 2'-O-bis-(N-Methylcarbamoyl)adenosine 3',5'-cyclic phosphate sodium salt], for which the “resistance to hydrolysis compared with C-AMP” value in data set [2] is on record as “more resistant to hydrolysis than C-AMP”.

Consider `CCCNC(=O)Nc1ncnc2c1ncn2[C@@H]1O[C@@H]2COP(=O)(O)O[C@H]2[C@H]1OC(=O)NCCC` [Compound 3, N^6, 2'-O-bis-(N-Propylcarbamoyl)adenosine 3', 5'-cyclic phosphate sodium salt], for which the “resistance to hydrolysis compared with C-AMP” value in data set [2] was “more resistant to hydrolysis than C-AMP”.

For the molecule `O=C(Nc1ccccc1)Nc1ncnc2c1ncn2[C@@H]1O[C@@H]2COP(=O)(O)O[C@H]2[C@H]1OC(=O)Nc1ccccc1` [Compound 4, N^6, 2'-O-bis-(N-Phenylcarbamoyl)adenosine 3',5'-cyclic phosphate sodium salt], the pIC50 was 4.03 in [3] and 3.72 in [4]. In data set [2], the “resistance to hydrolysis compared with C-AMP” value is reported as “more resistant to hydrolysis than C-AMP”.

For the molecule `CNC(=O)Nc1ncnc2c1ncn2[C@@H]1O[C@@H]2COP(=O)(O)O[C@H]2[C@H]1O` [Compound 5, N^6-(N-Methylcarbamoyl) adenosine 3',5'-cyclic phosphate], the “activation of lipolysis, concentration compared with C-AMP” value in the data set on lipolysis is “at concentrations substantially lower than C-AMP”. Besides, the “lowering of blood pressure” value in data set [5] is given as “act to lower blood pressure”. In addition, the “activation of steroidogenesis, concentration compared with C-AMP” value with steroidogenisis is “at concentrations substantially lower than C-AMP”. Also, the “resistance to hydrolysis compared with C-AMP” value in data set [2] is given as “more resistant to hydrolysis than C-AMP”.

For the molecule `CCCNC(=O)Nc1ncnc2c1ncn2[C@@H]1O[C@@H]2COP(=O)(O)O[C@H]2[C@H]1O` [Compound 6, N^6-(N-Propylcarbamoyl) adenosine 3',5'-cyclic phosphate], in the data set with lipolysis, the “activation of lipolysis, concentration compared with C-AMP” value is given as “at concentrations substantially lower than C-AMP”. Besides, the “lowering of blood pressure” value in data set [5] is given as “act to lower blood pressure”. Moreover, the “kinase activation compared with C-AMP” value in data set [6] was “superior in kinase activation to C-AMP itself”. Also, in the data set with steroidogenisis, the “activation of steroidogenesis, concentration compared with C-AMP” value was “at concentrations substantially lower than C-AMP”. In data set [2], the “resistance to hydrolysis compared with C-AMP” value was “more resistant to hydrolysis than C-AMP”.

As for `O=C(Nc1ccccc1)Nc1ncnc2c1ncn2[C@@H]1O[C@@H]2COP(=O)(O)O[C@H]2[C@H]1O` [Compound 7, N^6-(N-Phenylcarbamoyl)adenosine 3',5'-cyclic phosphate], in data set [3], the pIC50 is 4.66. Moreover, the “activation of lipolysis, concentration compared with C-AMP” value with lipolysis was “at concentrations substantially lower than C-AMP”. In addition, in data set [7], the “effect on heart rate” value is listed as “without deleteriously affecting heart rate” and the “persistence of inotropic action” value is recorded as “persistent in action”. Besides, in data set [7] (compared with aminophylline), the “increase of cardiac output compared with aminophylline” value is recorded as “the equal of aminophylline in increasing cardiac output”. Also, the “inhibition of adenyl cyclase” value in the data set with adenyl cyclase is “inhibit adenyl cyclase”. The pIC50 in data set [4] is 3.80. For the same molecule, the “Ka' (Ka for C-AMP/Ka for test compound)” value in [6] (Ka from Lineweaver-Burk plot, relative to C-AMP) amounted to 4.9. Moreover, the “kinase activation compared with C-AMP” value in data set [6] was “superior in kinase activation to C-AMP itself”. The “activation of protein kinase relative to C-AMP (times better)” value in data set [6] (bovine brain protein kinase, relative to C-AMP) is listed as “approximately five”. Further, in the data set with steroidogenisis, the “activation of steroidogenesis, concentration compared with C-AMP” value is “at concentrations substantially lower than C-AMP”. For the same molecule, in data set [2], the “resistance to hydrolysis compared with C-AMP” value is “more resistant to hydrolysis than C-AMP”.

Regarding `CCOC(=O)Nc1ncnc2c1ncn2[C@@H]1O[C@@H]2COP(=O)(O)O[C@H]2[C@H]1O` [Compound 8, N^6-(Ethoxycarbonyl)adenosine 3'5'-cyclic phosphate], the values for the pIC50 in data set [3] and in data set [4] were 3.89 and 3.68, respectively. The “activation of lipolysis, concentration compared with C-AMP” value with lipolysis is reported as “at concentrations substantially lower than C-AMP”. In addition, the “lowering of blood pressure” value in [5] was “act to lower blood pressure”. Besides, the “activation of steroidogenesis, concentration compared with C-AMP” value with steroidogenisis was “at concentrations substantially lower than C-AMP”. Besides, the “resistance to hydrolysis compared with C-AMP” value in data set [2] is “more resistant to hydrolysis than C-AMP”. Further, the “rate of hydrolysis relative to C-AMP” value in data set [2] (rate as % that of C-AMP) was 8%.

`CNC(=O)Nc1ncnc2c1nc(Br)n2[C@@H]1O[C@@H]2COP(=O)(O)O[C@H]2[C@H]1OC(=O)NC` [Compound 11, 8-Bromo-N^6,2'-O-bis-(N-methylcarbamoyl)adenosine 3',5'-cyclic phosphate]: the figures for the pIC50 in data set [3] and in [4] were 3.59 and 3.89, respectively. The “resistance to hydrolysis compared with C-AMP” value in [2] is recorded as “more resistant to hydrolysis than C-AMP”.

As for `O=C(Nc1ccccc1)Nc1ncnc2c1nc(SCc1ccccc1)n2[C@@H]1O[C@@H]2COP(=O)(O)O[C@H]2[C@H]1OC(=O)Nc1ccccc1` [Compound 12, 8-Benzylthio-N^6,2'-O-bis-(N-phenylcarbamoyl) adenosine 3',5'-cyclic phosphate sodium salt], the pIC50 was 4.66 in data set [3] and 5.00 in data set [4]. For the same molecule, the “resistance to hydrolysis compared with C-AMP” value in data set [2] is listed as “more resistant to hydrolysis than C-AMP”.

On to `O=C(Nc1ccccc1)Nc1ncnc2c1nc(SCc1ccccc1)n2[C@@H]1O[C@@H]2COP(=O)(O)O[C@H]2[C@H]1O` [Compound 15, 8-Benzylthio-N^6-(N-phenylcarbamoyl)adenosine 3',5'-cyclic phosphate], for which the pIC50 was 4.85 in data set [3] and 4.68 in [4]. Also, the “lowering of blood pressure” value in data set [5] is “act to lower blood pressure”. Further, the “inhibition of adenyl cyclase” value in the data set with adenyl cyclase is “inhibit adenyl cyclase”. In addition, the “kinase activation compared with C-AMP” value in [6] is reported as “superior in kinase activation to C-AMP itself”. Besides, in data set [2], the “resistance to hydrolysis compared with C-AMP” value was “more resistant to hydrolysis than C-AMP”.

In the case of `CNC(=O)Nc1ncnc2c1nc(S)n2[C@@H]1O[C@@H]2COP(=O)(O)O[C@H]2[C@H]1OC(=O)NC` [Compound 16, N^6,2'-O-bis-(N-Methylcarbamoyl)-8-mercaptoadenosine 3',5'-cyclic phosphate sodium salt], the “resistance to hydrolysis compared with C-AMP” value in data set [2] is listed as “more resistant to hydrolysis than C-AMP”.

For `Cn1c(=O)c2[nH]cnc2n(C)c1=O` [Theophylline, reference compound], the pIC50 is 3.89 in data set [3] and 3.64 in data set [4].
